Experimental data reported in ChEMBL document CHEMBL1147955, “Novel pyridyl-fused 3-amino chroman derivatives with dual action at serotonin transporter and 5-HT1A receptor” (Bioorg Med Chem Lett, 2007).

Tests used:
[1] = target: T1, 5-hydroxytryptamine receptor 1A (Homo sapiens) (UniProt P08908); assay: Agonist activity at human 5HT1A receptor expressed in CHO membrane assessed as stimulation of [35S]GTPgammaS binding relative to 5HT; type: functional, cell membranes
T1 sequence (whole entry): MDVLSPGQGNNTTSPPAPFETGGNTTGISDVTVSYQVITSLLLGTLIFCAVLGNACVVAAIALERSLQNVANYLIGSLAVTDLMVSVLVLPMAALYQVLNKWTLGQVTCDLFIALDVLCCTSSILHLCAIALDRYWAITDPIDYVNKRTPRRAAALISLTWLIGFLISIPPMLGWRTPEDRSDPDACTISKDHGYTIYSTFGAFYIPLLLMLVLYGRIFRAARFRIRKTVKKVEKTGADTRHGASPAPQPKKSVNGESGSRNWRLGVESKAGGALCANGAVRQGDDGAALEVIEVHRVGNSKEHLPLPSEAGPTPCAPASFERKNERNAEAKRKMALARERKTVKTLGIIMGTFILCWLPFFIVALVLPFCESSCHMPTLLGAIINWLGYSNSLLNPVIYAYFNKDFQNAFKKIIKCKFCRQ

[2] = target: T2, Adrenergic receptor alpha-1 (Rattus norvegicus, UniProt P15823+P23944+P43140); assay: Displacement of [3H]prazosin from adrenergic alpha-1 receptor in rat cortical membranes; type: cell membranes, Membrane
T2 sequence (P15823 whole entry): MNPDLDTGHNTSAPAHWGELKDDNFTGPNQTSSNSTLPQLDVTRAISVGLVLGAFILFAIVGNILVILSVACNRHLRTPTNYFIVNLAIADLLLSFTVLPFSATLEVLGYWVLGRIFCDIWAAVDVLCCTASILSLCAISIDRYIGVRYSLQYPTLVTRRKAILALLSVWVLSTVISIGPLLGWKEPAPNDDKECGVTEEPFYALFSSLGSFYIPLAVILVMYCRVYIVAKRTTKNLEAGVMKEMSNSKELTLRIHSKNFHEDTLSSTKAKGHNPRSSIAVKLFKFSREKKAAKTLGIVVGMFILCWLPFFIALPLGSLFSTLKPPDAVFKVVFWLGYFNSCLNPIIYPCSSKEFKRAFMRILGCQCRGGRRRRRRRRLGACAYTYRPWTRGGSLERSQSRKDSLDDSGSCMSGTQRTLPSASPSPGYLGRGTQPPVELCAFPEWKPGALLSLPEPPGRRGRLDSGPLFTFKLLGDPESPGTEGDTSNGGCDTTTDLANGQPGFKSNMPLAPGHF
T2 sequence (P23944 whole entry): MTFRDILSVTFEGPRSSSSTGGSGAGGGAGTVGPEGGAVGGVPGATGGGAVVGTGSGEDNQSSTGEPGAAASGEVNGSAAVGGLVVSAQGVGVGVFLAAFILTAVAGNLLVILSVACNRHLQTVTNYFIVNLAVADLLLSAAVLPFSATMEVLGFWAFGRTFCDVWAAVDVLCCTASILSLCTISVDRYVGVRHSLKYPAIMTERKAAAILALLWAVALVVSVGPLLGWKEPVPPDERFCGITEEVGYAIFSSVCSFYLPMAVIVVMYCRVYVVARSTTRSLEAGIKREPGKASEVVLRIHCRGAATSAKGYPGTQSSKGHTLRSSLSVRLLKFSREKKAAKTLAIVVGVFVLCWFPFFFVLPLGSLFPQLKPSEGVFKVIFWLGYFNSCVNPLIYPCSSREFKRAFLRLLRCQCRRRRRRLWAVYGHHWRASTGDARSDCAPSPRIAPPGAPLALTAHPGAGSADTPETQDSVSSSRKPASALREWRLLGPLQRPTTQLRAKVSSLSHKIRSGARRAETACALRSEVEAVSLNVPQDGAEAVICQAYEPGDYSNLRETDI
T2 sequence (P43140 whole entry): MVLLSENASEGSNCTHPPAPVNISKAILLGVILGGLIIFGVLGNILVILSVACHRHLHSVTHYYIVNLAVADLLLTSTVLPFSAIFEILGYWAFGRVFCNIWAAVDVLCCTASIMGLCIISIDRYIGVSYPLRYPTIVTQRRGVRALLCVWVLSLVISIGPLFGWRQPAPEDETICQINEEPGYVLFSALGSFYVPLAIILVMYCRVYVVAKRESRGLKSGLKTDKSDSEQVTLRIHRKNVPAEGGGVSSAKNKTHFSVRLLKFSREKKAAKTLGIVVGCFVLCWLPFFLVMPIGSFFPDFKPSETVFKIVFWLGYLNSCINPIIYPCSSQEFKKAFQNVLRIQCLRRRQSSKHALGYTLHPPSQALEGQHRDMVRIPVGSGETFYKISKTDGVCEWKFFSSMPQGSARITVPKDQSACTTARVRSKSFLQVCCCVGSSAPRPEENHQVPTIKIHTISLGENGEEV

[3] = target: Sodium-dependent serotonin transporter (Rattus norvegicus, UniProt P31652); assay: Displacement of [3H]paroxetine from 5HT reuptake site of rat cortical 5HTT
[4] = target: T3, 5-hydroxytryptamine receptor 1A (Homo sapiens, UniProt P08908); assay: Agonist activity at human 5HT1A receptor expressed in CHO membrane assessed as stimulation of [35S]GTP-gamma-S binding; type: functional, cell membranes
T3 sequence (P08908 whole entry): T1 sequence (whole entry)

[5] = target: T3, 5-hydroxytryptamine receptor 1A; assay: Displacement of [3H]8-OH-DPAT from human 5HT1A receptor expressed in CHO cells; type: cell-based
[6] = target: T2, Adrenergic receptor alpha-1; assay: Displacement of [3H]prazosin from adrenergic alpha-1 receptor in rat cortical membranes at 1 uM; type: cell membranes, Membrane
[7] = target: T3, 5-hydroxytryptamine receptor 1A; assay: Displacement of [3H]8-OH-DPAT from human 5HT1A receptor expressed in CHO cells at 1 uM; type: cell-based

Chain of Sodium-dependent serotonin transporter (P31652 whole entry): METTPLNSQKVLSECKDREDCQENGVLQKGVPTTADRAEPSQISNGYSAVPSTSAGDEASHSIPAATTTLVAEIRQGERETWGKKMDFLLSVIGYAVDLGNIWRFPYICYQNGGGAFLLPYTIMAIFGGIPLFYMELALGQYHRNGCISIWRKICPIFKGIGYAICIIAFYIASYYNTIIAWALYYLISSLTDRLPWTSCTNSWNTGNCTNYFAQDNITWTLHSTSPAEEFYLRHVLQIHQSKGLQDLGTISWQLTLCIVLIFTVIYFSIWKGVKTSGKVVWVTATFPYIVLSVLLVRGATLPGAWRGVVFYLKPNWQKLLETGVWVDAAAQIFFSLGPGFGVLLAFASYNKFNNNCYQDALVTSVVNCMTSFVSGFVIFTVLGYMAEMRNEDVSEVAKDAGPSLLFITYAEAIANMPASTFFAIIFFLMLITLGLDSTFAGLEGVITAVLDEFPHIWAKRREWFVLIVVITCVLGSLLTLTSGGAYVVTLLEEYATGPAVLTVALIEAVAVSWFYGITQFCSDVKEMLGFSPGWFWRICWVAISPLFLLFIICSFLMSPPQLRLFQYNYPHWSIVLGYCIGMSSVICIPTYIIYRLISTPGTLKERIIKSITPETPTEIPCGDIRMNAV

Structure (SMILES) | Ki [2] [nM] | Ki [3] [nM] | Ki [5] [nM] | other results
Fc1ccc2[nH]cc(CCCNC3COc4c(ccc5ncccc45)C3)c2c1 (single isomer, unassigned; (+)) [listing 1 of 2 here] | – | – | – | Emax [1]: 75%
Fc1ccc2[nH]cc(CCCNC3COc4c(ccc5ncccc45)C3)c2c1 (single isomer, unassigned; (-)) [listing 1 of 2 here] | 387.7 | 1.2 | 67.8 | EC50 [4]: 172 nM
Fc1ccc2[nH]cc(CCCNC3COc4ccc5ncccc5c4C3)c2c1 (racemic) | 324.2 | – | – | –
CCCN(CCCCc1c[nH]c2ccc(F)cc12)C1COc2c(ccc3ncccc23)C1 (racemic) | – | – | – | % inhibition [6]: 19%; % inhibition [7]: 21%
Fc1ccc2[nH]cc(CCCNC3COc4ccc5ncccc5c4C3)c2c1 (stereo in doubt; (+)-5) [listing 1 of 2 here] | 590.8 | – | 23.9 | –
Fc1ccc2[nH]cc(CCCNC3COc4c(ccc5ncccc45)C3)c2c1 (single isomer, unassigned; (-)) [listing 2 of 2 here] | – | – | – | Emax [1]: 100%
Fc1ccc2[nH]cc(CCCNC3COc4ccc5ncccc5c4C3)c2c1 (single isomer, unassigned; (-)) [listing 1 of 2 here] | – | – | – | Emax [1]: 86%
CCCN(CCCc1c[nH]c2ccc(F)cc12)C1COc2ccc3ncccc3c2C1 (single isomer, unassigned; (+)) [listing 1 of 2 here] | – | – | – | Emax [1]: 100%
CCCN(CCCc1c[nH]c2ccc(F)cc12)C1COc2ccc3ncccc3c2C1 (stereo in doubt; (-)-6) [listing 1 of 2 here] | – | – | – | Emax [1]: 55%
Fc1ccc2[nH]cc(CCCNC3COc4ccc5ncccc5c4C3)c2c1 (stereo in doubt; (+)-5) [listing 2 of 2 here] | – | – | – | Emax [1]: 100%
Fc1ccc2[nH]cc(CCCCNC3COc4c(ccc5ncccc45)C3)c2c1 (racemic) | – | 1.5 | – | % inhibition [6]: 33%; % inhibition [7]: 47%
CCCN(CCCc1c[nH]c2ccc(F)cc12)C1COc2c(ccc3ncccc23)C1 (racemic) | 1234.3 | 12.4 | – | % inhibition [7]: 46%

Continued, in another order:

Ki [2] [nM] | Ki [3] [nM] | Ki [5] [nM] | Structure (SMILES) | other results
489.5 | 2.6 | 105 | Fc1ccc2[nH]cc(CCCNC3COc4c(ccc5ncccc45)C3)c2c1 (racemic) | –
772.5 | 9.2 | 70.4 | COc1cccc2c1CC(NCCCc1c[nH]c3ccc(F)cc13)CO2 (racemic) | –
– | 19.8 | 58 | CCCN(CCCc1c[nH]c2ccc(F)cc12)C1COc2ccc3ncccc3c2C1 (single isomer, unassigned; (+)) [listing 2 of 2 here] | % inhibition [6]: 38%; EC50 [4]: 301 nM
623.7 | 3 | 392 | Fc1ccc2[nH]cc(CCCNC3COc4c(ccc5ncccc45)C3)c2c1 (single isomer, unassigned; (+)) [listing 2 of 2 here] | EC50 [4]: 332 nM
– | 8.8 | – | CCCN(CCCc1c[nH]c2ccc(F)cc12)C1COc2ccc3ncccc3c2C1 (stereo in doubt; (-)-6) [listing 2 of 2 here] | % inhibition [6]: 31%
1078.7 | 30.5 | – | Fc1ccc2[nH]cc(CCNC3COc4ccc5ncccc5c4C3)c2c1 (racemic) | % inhibition [7]: 10%
– | 16.9 | 63.5 | CCCN(CCCc1c[nH]c2ccc(F)cc12)C1COc2ccc3ncccc3c2C1 (racemic) | % inhibition [6]: 18%
711.2 | 62.8 | – | CCCN(CCc1c[nH]c2ccc(F)cc12)C1COc2ccc3ncccc3c2C1 (racemic) | –
221 | – | 314 | Fc1ccc2[nH]cc(CCCNC3COc4ccc5ncccc5c4C3)c2c1 (single isomer, unassigned; (-)) [listing 2 of 2 here] | EC50 [4]: 116 nM
